These results are taken from patent US11634425B2, “Pharmaceutical compounds” (priority 2019, dated 2023).

pEC50: −log10 of the molar value.

A short description of one series: Cell cytotoxicity (CC50). Type of series: cell-based. Particulars: human; mean of at least two experiments. The source says:
(§1) Compounds were subjected to RSV plaque reduction assays according to the following protocol. Plaque EC50 and cell toxicity CC50 values are a mean of at least two experiments and figures are rounded to whole units.
(§2) Plates were scanned and analysed using the Immunospot S6 Macro analyser, which is equipped with BioSpot analysis software for counting immunostained plaques (virospots). Plaque counts were used to calculate % c infection relative to the mean of the plaque count in the virus control wells for RSV. The EC50 value was calculated as 50% reduction in signal, respectively, by interpolation of inhibition curves fitted with a 4-parameter nonlinear regression with a variable slope in Dotmatics. Plaque EC50 and cell toxicity CC50 values are a mean of at least two experiments and figures are rounded to whole units.

The subject of the next series is RSV A2. Briefly: RSV plaque reduction assay. Particulars: human respiratory syncytial virus, HepG2, Hep-G2 cells, mean of at least two experiments. Type of series: cell-based, respiratory syncytial virus (RSV). The method, then: as §1
Hep-G2 cells (ECACC, 85011430) were passaged in flasks and seeded in 24-well plates in DMEM containing antibiotics and supplemented with 10% FBS. During inoculation and subsequent incubation, cells were cultured in DMEM containing 2% FBS. 100 plaque forming unit/well of RSV (RSV A2 ECACC, 0709161v) was mixed with eight serial dilutions of compound. Subsequently, 100 μL of the virus/compound mixtures was added to confluent Hep-G2 cell monolayers. The cells and virus/compound mixtures were incubated at 37° C. in a humidified 5% CO2 incubator for 2 h prior to removal of the inoculum and addition of 1 mL of overlay (DMEM containing 2% FBS and 0.8% CMC) containing compound dilutions. The cells and were incubated at 37° C. in a humidified 5% CO2 incubator for 2 days.
Cells were washed with PBS before adding 75/25% […] EtOH/MeOH, for 3 min. Fixative was removed and plates were washed with PBS. A pre-titrated amount of the primary antibody was added in 200 μL PBS/2% milk powder, and plates incubated for 90 min at 37° C. The plates were washed 3 times with PBS/0.05% Tween20 before addition of rabbit anti-goat horse radish peroxidase in 200 μL PBS/2% milk powder, and incubated for 1 h at 37° C. Following three wash steps with PBS/0.05% Tween20, 200 μL ready-to-use TrueBlue was added and plates were incubated at rt for 10-15 min before washing with water. After removal of water, plates were air-dried in the dark.
as §2
For orientation: Plaque reduction counts the foci of infection that form in a cell layer.

As to `Cc1ccc2nc(-c3ccncc3F)c(C(=O)N[C@H]3N=C(c4ccccc4)c4ccccc4NC3=O)n2n1` [Example 99, 2-(3-Fluoropyridin-4-yl)-6-methyl-N-[(3S)-2-oxo-5-phenyl-1,3-dihydro-1,4-benzodiazepin-3-yl]imidazo[1,2-b]pyridazine-3-carboxamide], the CC50 (as a rule, the concentration that lowers cell viability or growth by half) in the series “Cell cytotoxicity (CC50)” was > 25000 nM. Further, the negative logarithm of the EC50 (pEC50) (as a rule, −log10 of the EC50, conventionally taken in molar units) with RSV A2 was 7.29.

`Cn1ccc2cc(-c3nn4cccnc4c3C(=O)N[C@H]3N=C(c4ccccc4)c4cccc(F)c4NC3=O)cnc21` [Example 71, N-[(3S)-9-fluoro-2-oxo-5-phenyl-1,3-dihydro-1,4-benzodiazepin-3-yl]-2-(1-methylpyrrolo[2,3-b]pyridin-5-yl)pyrazolo[1,5-a]pyrimidine-3-carboxamide]: in the series “Cell cytotoxicity (CC50)”, the CC50 is > 25000 nM. In the series with RSV A2, the pEC50 is 7.00.

`Cc1ccc2nc(-c3cncc(F)c3)c(C(=O)N[C@H]3N=C(c4ccccc4)c4ccccc4NC3=O)n2n1` [Example 101, 2-(5-Fluoropyridin-3-yl)-6-methyl-N-[(3S)-2-oxo-5-phenyl-1,3-dihydro-1,4-benzodiazepin-3-yl]imidazo[1,2-b]pyridazine-3-carboxamide]: the half-maximal cytotoxic concentration (CC50) in the series “Cell cytotoxicity (CC50)” is > 25000 nM. The pEC50 in the series on RSV A2 is 7.09.

As to `CC(C)(O)Cc1ccc(-c2nn3cccnc3c2C(=O)N[C@H]2N=C(c3ccccc3)c3cccc(F)c3NC2=O)cn1` [Example 77, 2-[6-(2-Hydroxy-2-methylpropyl)pyridin-3-yl]-N-[(3S)-9-fluoro-2-oxo-5-phenyl-1,3-dihydro-1,4-benzodiazepin-3-yl]pyrazolo[1,5-a]pyrimidine-3-carboxamide], the CC50 in the series “Cell cytotoxicity (CC50)” is > 25000 nM. For the same compound, in the series with RSV A2, the pEC50 is 6.98.

For `CN1C[C@H]2C[C@@H]1CN2c1ccn2nc(-c3ccccc3F)c(C(=O)N[C@H]3N=C(c4ccccc4)c4cccc(F)c4NC3=O)c2n1` [Example 84, N-[(3S)-9-fluoro-2-oxo-5-phenyl-1,3-dihydro-1,4-benzodiazepin-3-yl]-2-(2-fluorophenyl)[(1R,4R)-5-methyl-2,5-diazabicyclo[2.2.1]heptan-2-yl]pyrazolo[1,5-a]pyrimidine-3-carboxamide], in “Cell cytotoxicity (CC50)”, the CC50 is 16300 nM. Moreover, in the series with RSV A2, the pEC50 is 7.02.

For the compound `O=C(N[C@H]1N=C(c2ccccc2)c2ccccc2NC1=O)c1c(-c2ccc(N3CCCC3)cc2F)nn2cccnc12` [Example 45, 2-(2-Fluoro-4-pyrrolidin-1-ylphenyl)-N-[(3S)-2-oxo-5-phenyl-1,3-dihydro-1,4-benzodiazepin-3-yl]pyrazolo[1,5-a]pyrimidine-3-carboxamide], the CC50 in “Cell cytotoxicity (CC50)” is > 25000 nM. The compound further showed a negative-log EC50 (pEC50) in the series with RSV A2 of 6.99.

In the case of `Cc1ccn2nc(-c3ccc(F)cc3F)c(C(=O)N[C@H]3N=C(c4ccccc4)c4ccccc4NC3=O)c2n1` [Example 35, 2-(2,4-Difluorophenyl)-5-methyl-N-[(3S)-2-oxo-5-phenyl-1,3-dihydro-1,4-benzodiazepin-3-yl]pyrazolo[1,5-a]pyrimidine-3-carboxamide], the half-maximal cytotoxic concentration (CC50) in “Cell cytotoxicity (CC50)” is > 25000 nM. Besides, the pEC50 in the series on RSV A2 was 7.54.

Turning to `CCOc1ccc(-c2nn3cccnc3c2C(=O)N[C@H]2N=C(c3ccccc3)c3cccc(F)c3NC2=O)cn1` [Example 53, 2-(6-Ethoxypyridin-3-yl)-N-[(3S)-9-fluoro-2-oxo-5-phenyl-1,3-dihydro-1,4-benzodiazepin-3-yl]pyrazolo[1,5-a]pyrimidine-3-carboxamide], the CC50 in “Cell cytotoxicity (CC50)” was > 25000 nM. Further, in the series on RSV A2, the negative-log EC50 (pEC50) was 7.01.

With `O=C(N[C@H]1N=C(c2ccccc2)c2cccc(F)c2NC1=O)c1c(-c2ccccc2F)nn2ccc(N3CCCC3)nc12` [Example 40, N-[(3S)-9-Fluoro-2-oxo-5-phenyl-1,3-dihydro-1,4-benzodiazepin-3-yl]-2-(2-fluorophenyl)-5-pyrrolidin-1-ylpyrazolo[1,5-a]pyrimidine-3-carboxamide], the CC50 in the series “Cell cytotoxicity (CC50)” was > 25000 nM. For the same compound, the negative-log EC50 (pEC50) with RSV A2 is 7.29.

Regarding `CC(C)Oc1ccc(-c2nn3cccnc3c2C(=O)N[C@H]2N=C(c3ccccc3)c3ccccc3NC2=O)c(F)c1` [Example 15, 2-(2-Fluoro-4-propan-2-yloxyphenyl)-N-[(3S)-2-oxo-5-phenyl-1,3-dihydro-1,4-benzodiazepin-3-yl]pyrazolo[1,5-a]pyrimidine-3-carboxamide], the cytotoxic concentration (CC50) in the series “Cell cytotoxicity (CC50)” was > 25000 nM. For the same compound, in the series with RSV A2, the pEC50 was 7.04.

In “Cell cytotoxicity (CC50)”, `Cc1ccc(F)c(-c2nn3cccnc3c2C(=O)N[C@H]2N=C(c3ccccc3)c3cccc(F)c3NC2=O)c1` [Example 26, 2-(2-Fluoro-5-methylphenyl)-N-[(3S)-9-fluoro-2-oxo-5-phenyl-1,3-dihydro-1,4-benzodiazepin-3-yl]pyrazolo[1,5-a]pyrimidine-3-carboxamide] registered a CC50 of 8770 nM. The pEC50 with RSV A2 was 7.28.

Regarding `COc1ccc(-c2nn3cccnc3c2C(=O)N[C@H]2N=C(c3ccccc3)c3cccc(F)c3NC2=O)cn1` [Example 76, N-[(3S)-9-fluoro-2-oxo-5-phenyl-1,3-dihydro-1,4-benzodiazepin-3-yl]-2-(6-methoxypyridin-3-yl)pyrazolo[1,5-a]pyrimidine-3-carboxamide], in the series “Cell cytotoxicity (CC50)”, the CC50 is > 25000 nM. This compound also gave a pEC50 in the series on RSV A2 of 7.03.

Regarding `COc1nc(C)ccc1-c1nn2cccnc2c1C(=O)N[C@H]1N=C(c2ccccc2)c2ccccc2NC1=O` [Example 86, 2-(2-Methoxy-6-methylpyridin-3-yl)-N-[(3S)-2-oxo-5-phenyl-1,3-dihydro-1,4-benzodiazepin-3-yl]pyrazolo[1,5-a]pyrimidine-3-carboxamide], the CC50 in “Cell cytotoxicity (CC50)” was > 25000 nM. The compound further had a negative-log EC50 (pEC50) in the series on RSV A2 of 6.92.

With `Cc1ccc(-c2nn3cccnc3c2C(=O)N[C@H]2N=C(c3ccccc3)c3ccccc3NC2=O)cn1` [Example 49, 2-(6-Methylpyridin-3-yl)-N-[(3S)-2-oxo-5-phenyl-1,3-dihydro-1,4-benzodiazepin-3-yl]pyrazolo[1,5-a]pyrimidine-3-carboxamide], the CC50 in “Cell cytotoxicity (CC50)” was > 25000 nM. Besides, the pEC50 with RSV A2 was 7.00.

Consider `C[C@H]1COCCN1c1ccc(-c2nn3cccnc3c2C(=O)N[C@H]2N=C(c3ccccc3)c3cccc(F)c3NC2=O)cn1` (single isomer, unassigned) [Example 125, N-[(3S)-9-fluoro-2-oxo-5-phenyl-2,3-dihydro-1H-1,4-benzodiazepin-3-yl]-2-{6-[(3S*)-3-methylmorpholin-4-yl]pyridin-3-yl}pyrazolo[1,5-a]pyrimidine-3-carboxamide], for which, in “Cell cytotoxicity (CC50)”, the CC50 was > 25000 nM. The same compound gave a pEC50 in the series on RSV A2 of 7.06.

`Cc1cc(-c2nc3ccc(C)nn3c2C(=O)N[C@H]2N=C(c3ccccc3)c3cccc(F)c3NC2=O)ccn1` [Example 98, N-[(3S)-9-fluoro-2-oxo-5-phenyl-1,3-dihydro-1,4-benzodiazepin-3-yl]-6-methyl-2-(2-methylpyridin-4-yl)imidazo[1,2-b]pyridazine-3-carboxamide]: in “Cell cytotoxicity (CC50)”, the CC50 was > 25000 nM. Also, in the series on RSV A2, the pEC50 was 7.32.

With `[2H]C([2H])([2H])Oc1ccc2nc(-c3ccccc3)c(C(=O)N[C@H]3N=C(c4ccccc4)c4ccccc4NC3=O)n2n1` [Example 112, N-[(3S)-2-oxo-5-phenyl-1,3-dihydro-1,4-benzodiazepin-3-yl]-2-phenyl-6-(trideuteriomethoxy)imidazo[1,2-b]pyridazine-3-carboxamide], the CC50 in “Cell cytotoxicity (CC50)” is > 25000 nM. In the series on RSV A2, this compound showed a pEC50 of 7.30.

For the compound `Cc1ccc2nc(-c3cncc(C(F)(F)F)c3)c(C(=O)N[C@H]3N=C(c4ccccc4)c4ccccc4NC3=O)n2n1` [Example 46, 6-Methyl-N-[(3S)-2-oxo-5-phenyl-1,3-dihydro-1,4-benzodiazepin-3-yl]-2-[5-(trifluoromethyl)pyridin-3-yl]imidazo[1,2-b]pyridazine-3-carboxamide], the CC50 in the series “Cell cytotoxicity (CC50)” was > 25000 nM. In addition, the pEC50 with RSV A2 was 7.03.

For the compound `[2H]C([2H])([2H])Oc1ccc2nc(-c3ccc(CC)nc3)c(C(=O)N[C@H]3N=C(c4ccccc4)c4cccc(F)c4NC3=O)n2n1` [Example 123, 2-(6-Ethylpyridin-3-yl)-N-[(3S)-9-fluoro-2-oxo-5-phenyl-2,3-dihydro-1H-1,4-benzodiazepin-3-yl]-6-(^2H3)methoxyimidazo[1,2-b]pyridazine-3-carboxamide], in “Cell cytotoxicity (CC50)”, the 50% cytotoxic concentration (CC50) was > 25000 nM. The same compound had a pEC50 with RSV A2 of 7.35.

As to `Cc1ccc2nc(-c3ccc(F)cc3F)c(C(=O)N[C@H]3N=C(c4ccccc4)c4ccccc4NC3=O)n2n1` [Example 90, 2-(2,4-Difluorophenyl)-6-methyl-N-[(3S)-2-oxo-5-phenyl-1,3-dihydro-1,4-benzodiazepin-3-yl]imidazo[1,2-b]pyridazine-3-carboxamide], the CC50 in “Cell cytotoxicity (CC50)” is > 25000 nM. Besides, the pEC50 in the series on RSV A2 was 8.10.
